Results as given in ChEMBL document CHEMBL1127385, “Synthesis and diuretic activity of alkyl- and arylguanidine analogs of N,N'-dicyclohexyl-4-morpholinecarboxamidine in rats and dogs” (J Med Chem, 1994).
One block for each molecule: values may come before it.

Tests used:
Rattus norvegicus [1] = test: Ratio of Total electrolytic excretion of sodium and potassium in urine of rats after peroral administration of 316 uM/Kg of drug; format: ADME, organism-based; conditions: in vivo, po
Rattus norvegicus [2] = test: Total electrolytic excretion of potassium in urine of rats after peroral administration of 94.9 uM/Kg of drug; format: ADME, organism-based; conditions: in vivo, po
Rattus norvegicus [3] = test: Total electrolytic excretion of sodium in urine of rats after peroral administration of 31.6 uM/Kg of drug; format: ADME, organism-based; conditions: in vivo, po
Rattus norvegicus [4] = test: Total electrolytic excretion of sodium in urine of rats after peroral administration of 316 uM/Kg of drug; format: ADME, organism-based; conditions: in vivo, po
Rattus norvegicus [5] = test: Tested for the diuretic activity by measuring the urinary volume after peroral administering 31.6 uM/Kg of drug in rats; format: ADME, organism-based, Urine; conditions: in vivo, po
Rattus norvegicus [6] = test: Total electrolytic excretion of chlorine in urine of rats after peroral administration of 316 uM/Kg of drug; format: ADME, organism-based; conditions: in vivo, po
Rattus norvegicus [7] = test: Total electrolytic excretion of chlorine in urine of rats after peroral administration of 94.9 uM/Kg of drug; format: ADME, organism-based; conditions: in vivo, po
Rattus norvegicus [8] = test: Total electrolytic excretion of sodium in urine of rats after peroral administration of 94.9 uM/Kg of drug; format: ADME, organism-based; conditions: in vivo, po
Rattus norvegicus [9] = test: Tested for the diuretic activity by measuring the urinary volume after peroral administering 94.9 uM/Kg of drug in rats; format: ADME, organism-based, Urine; conditions: in vivo, po
Rattus norvegicus [10] = test: Ratio of Total electrolytic excretion of sodium and potassium in urine of rats after peroral administration of 31.6 uM/Kg of drug; format: ADME, organism-based; conditions: in vivo, po
Rattus norvegicus [11] = test: Ratio of Total electrolytic excretion of sodium and potassium in urine of rats after peroral administration of 94.9 uM/Kg of drug; format: ADME, organism-based; conditions: in vivo, po
Rattus norvegicus [12] = test: Total electrolytic excretion of chlorine in urine of rats after peroral administration of 31.6 uM/Kg of drug; format: ADME, organism-based; conditions: in vivo, po
Rattus norvegicus [13] = test: Total electrolytic excretion of potassium in urine of rats after peroral administration of 316 uM/Kg of drug; format: ADME, organism-based; conditions: in vivo, po
Rattus norvegicus [14] = test: Total electrolytic excretion of potassium in urine of rats after peroral administration of 31.6 uM/Kg of drug; format: ADME, organism-based; conditions: in vivo, po
Rattus norvegicus [15] = test: Tested for the diuretic activity by measuring the urinary volume after peroral administering 316 uM/Kg of drug in rats; format: ADME, organism-based, Urine; conditions: in vivo, po
Rattus norvegicus [16] = test: Total electrolytic excretion of potassium in urine of rats after peroral administration of 83.8 uM/Kg of drug; format: ADME, organism-based; conditions: in vivo, po
Rattus norvegicus [17] = test: Tested for the diuretic activity by measuring the urinary volume after peroral administering 27.9 uM/Kg of drug in rats; format: ADME, organism-based, Urine; conditions: in vivo, po
Rattus norvegicus [18] = test: Ratio of Total electrolytic excretion of sodium and potassium in urine of rats after peroral administration of 279 uM/Kg of drug; format: ADME, organism-based; conditions: in vivo, po
Rattus norvegicus [19] = test: Total electrolytic excretion of chlorine in urine of rats after peroral administration of 279 uM/Kg of drug; format: ADME, organism-based; conditions: in vivo, po
Rattus norvegicus [20] = test: Total electrolytic excretion of chlorine in urine of rats after peroral administration of 27.9 uM/Kg of drug; format: ADME, organism-based; conditions: in vivo, po
Rattus norvegicus [21] = test: Total electrolytic excretion of sodium in urine of rats after peroral administration of 27.9 uM/Kg of drug; format: ADME, organism-based; conditions: in vivo, po
Rattus norvegicus [22] = test: Ratio of Total electrolytic excretion of sodium and potassium in urine of rats after peroral administration of 83.8 uM/Kg of drug; format: ADME, organism-based; conditions: in vivo, po
Rattus norvegicus [23] = test: Tested for the diuretic activity by measuring the urinary volume after peroral administering 83.8 uM/Kg of drug in rats; format: ADME, organism-based, Urine; conditions: in vivo, po
Rattus norvegicus [24] = test: Total electrolytic excretion of sodium in urine of rats after peroral administration of 83.8 uM/Kg of drug; format: ADME, organism-based; conditions: in vivo, po
Rattus norvegicus [25] = test: Total electrolytic excretion of potassium in urine of rats after peroral administration of 27.9 uM/Kg of drug; format: ADME, organism-based; conditions: in vivo, po
Rattus norvegicus [26] = test: Total electrolytic excretion of potassium in urine of rats after peroral administration of 279 uM/Kg of drug; format: ADME, organism-based; conditions: in vivo, po
Rattus norvegicus [27] = test: Tested for the diuretic activity by measuring the urinary volume after peroral administering 279 uM/Kg of drug in rats; format: ADME, organism-based, Urine; conditions: in vivo, po
Rattus norvegicus [28] = test: Total electrolytic excretion of chlorine in urine of rats after peroral administration of 83.8 uM/Kg of drug; format: ADME, organism-based; conditions: in vivo, po
Rattus norvegicus [29] = test: Total electrolytic excretion of sodium in urine of rats after peroral administration of 279 uM/Kg of drug; format: ADME, organism-based; conditions: in vivo, po
Rattus norvegicus [30] = test: Ratio of Total electrolytic excretion of sodium and potassium in urine of rats after peroral administration of 27.9 uM/Kg of drug; format: ADME, organism-based; conditions: in vivo, po
Rattus norvegicus [31] = test: Total electrolytic excretion of potassium in urine of rats after peroral administration of 23.9 uM/Kg of drug; format: ADME, organism-based; conditions: in vivo, po
Rattus norvegicus [32] = test: Total electrolytic excretion of potassium in urine of rats after peroral administration of 71.6 uM/Kg of drug; format: ADME, organism-based; conditions: in vivo, po
Rattus norvegicus [33] = test: Total electrolytic excretion of potassium in urine of rats after peroral administration of 239 uM/Kg of drug; format: ADME, organism-based; conditions: in vivo, po
Rattus norvegicus [34] = test: Total electrolytic excretion of sodium in urine of rats after peroral administration of 71.6 uM/Kg of drug; format: ADME, organism-based; conditions: in vivo, po
Rattus norvegicus [35] = test: Total electrolytic excretion of chlorine in urine of rats after peroral administration of 23.9 uM/Kg of drug; format: ADME, organism-based; conditions: in vivo, po
Rattus norvegicus [36] = test: Total electrolytic excretion of chlorine in urine of rats after peroral administration of 239 uM/Kg of drug; format: ADME, organism-based; conditions: in vivo, po
Rattus norvegicus [37] = test: Tested for the diuretic activity by measuring the urinary volume after peroral administering 239 uM/Kg of drug in rats; format: ADME, organism-based, Urine; conditions: in vivo, po
Rattus norvegicus [38] = test: Ratio of Total electrolytic excretion of sodium and potassium in urine of rats after peroral administration of 71.6 uM/Kg of drug; format: ADME, organism-based; conditions: in vivo, po
Rattus norvegicus [39] = test: Tested for the diuretic activity by measuring the urinary volume after peroral administering 23.9 uM/Kg of drug in rats; format: ADME, organism-based, Urine; conditions: in vivo, po
Canis familiaris [40] = test: Tested for the diuretic activity by measuring the urinary volume after intravenous administering 11.9 uM/Kg of drug in dogs; format: ADME, organism-based, Canis lupus familiaris, Urine; conditions: dog, in vivo
Rattus norvegicus [41] = test: Ratio of Total electrolytic excretion of sodium and potassium in urine of rats after peroral administration of 23.9 uM/Kg of drug; format: ADME, organism-based; conditions: in vivo, po
Canis familiaris [42] = test: Total electrolytic excretion of chlorine in urine of dogs after intravenous administration of 11.9 uM/Kg of drug; format: ADME, organism-based, Canis lupus familiaris; conditions: dog, in vivo
Rattus norvegicus [43] = test: Ratio of Total electrolytic excretion of sodium and potassium in urine of rats after intravenous administration of 11.9 uM/Kg of drug; format: ADME, organism-based; conditions: in vivo
Rattus norvegicus [44] = test: Total electrolytic excretion of sodium in urine of rats after peroral administration of 239 uM/Kg of drug; format: ADME, organism-based; conditions: in vivo, po
Rattus norvegicus [45] = test: Total electrolytic excretion of sodium in urine of rats after peroral administration of 23.9 uM/Kg of drug; format: ADME, organism-based; conditions: in vivo, po
Rattus norvegicus [46] = test: Ratio of Total electrolytic excretion of sodium and potassium in urine of rats after peroral administration of 239 uM/Kg of drug; format: ADME, organism-based; conditions: in vivo, po
Canis familiaris [47] = test: Total electrolytic excretion of potassium in urine of dogs after intravenous administration of 11.9 uM/Kg of drug; format: ADME, organism-based, Canis lupus familiaris; conditions: dog, in vivo
Rattus norvegicus [48] = test: Tested for the diuretic activity by measuring the urinary volume after peroral administering 71.6 uM/Kg of drug in rats; format: ADME, organism-based, Urine; conditions: in vivo, po
Canis familiaris [49] = test: Total electrolytic excretion of sodium in urine of dogs after intravenous administration of 11.9 uM/Kg of drug; format: ADME, organism-based, Canis lupus familiaris; conditions: dog, in vivo
Rattus norvegicus [50] = test: Total electrolytic excretion of chlorine in urine of rats after peroral administration of 71.6 uM/Kg of drug; format: ADME, organism-based; conditions: in vivo, po

Ratio (Rattus norvegicus [1]): 4.1
Excretion K+ (Rattus norvegicus [2]): 0.26 m equiv
Excretion Na+ (Rattus norvegicus [3]): 0.62 m equiv
Excretion Na+ (Rattus norvegicus [4]): 1.32 m equiv
V (Rattus norvegicus [5]): 3.8 mL
Excretion Cl- (Rattus norvegicus [6]): 1.4 m equiv
Excretion Cl- (Rattus norvegicus [7]): 0.92 m equiv
Excretion Na+ (Rattus norvegicus [8]): 0.84 m equiv
V (Rattus norvegicus [9]): 6.3 mL
Ratio (Rattus norvegicus [10]): 2.2
Ratio (Rattus norvegicus [11]): 3.2
Excretion Cl- (Rattus norvegicus [12]): 0.65 m equiv
Excretion K+ (Rattus norvegicus [13]): 0.32 m equiv
Excretion K+ (Rattus norvegicus [14]): 0.28 m equiv
V (Rattus norvegicus [15]): 8.9 mL
Structure (SMILES): C1CCC(N/C(=N/C2CCCC2)N2CCOCC2)CC1

Excretion K+ (Rattus norvegicus [16]): 0.29 m equiv
V (Rattus norvegicus [17]): 6.2 mL
Ratio (Rattus norvegicus [18]): 4.7
Excretion Cl- (Rattus norvegicus [19]): 1.46 m equiv
Excretion Cl- (Rattus norvegicus [20]): 0.84 m equiv
Excretion Na+ (Rattus norvegicus [21]): 0.72 m equiv
Ratio (Rattus norvegicus [22]): 3.5
V (Rattus norvegicus [23]): 7.7 mL
Excretion Na+ (Rattus norvegicus [24]): 1.01 m equiv
Excretion K+ (Rattus norvegicus [25]): 0.24 m equiv
Excretion K+ (Rattus norvegicus [26]): 0.31 m equiv
V (Rattus norvegicus [27]): 11.2 mL
Excretion Cl- (Rattus norvegicus [28]): 1.06 m equiv
Excretion Na+ (Rattus norvegicus [29]): 1.45 m equiv
Ratio (Rattus norvegicus [30]): 3
Structure (SMILES): Clc1ccccc1N/C(=N/C1CCCCC1)N1CCOCC1

Excretion K+ (Rattus norvegicus [31]): 0.27 m equiv
Excretion K+ (Rattus norvegicus [32]): 0.32 m equiv
Excretion K+ (Rattus norvegicus [33]): 0.33 m equiv
Excretion Na+ (Rattus norvegicus [34]): 1.41 m equiv
Excretion Cl- (Rattus norvegicus [35]): 1.17 m equiv
Excretion Cl- (Rattus norvegicus [36]): 1.69 m equiv
V (Rattus norvegicus [37]): 13.2 mL
Ratio (Rattus norvegicus [38]): 4.4 [Na+]/[K+]
V (Rattus norvegicus [39]): 7.4 mL
V (Canis familiaris [40]): 57 mL
Ratio (Rattus norvegicus [41]): 4.1 [Na+]/[K+]
Excretion Cl- (Canis familiaris [42]): 5.7 m equiv
Ratio (Rattus norvegicus [43]): 7.4 [Na+]/[K+]
Excretion Na+ (Rattus norvegicus [44]): 1.92 m equiv
Excretion Na+ (Rattus norvegicus [45]): 1.1 m equiv
Ratio (Rattus norvegicus [46]): 5.8 [Na+]/[K+]
Excretion K+ (Canis familiaris [47]): 1.1 m equiv
V (Rattus norvegicus [48]): 10.6 mL
Excretion Na+ (Canis familiaris [49]): 8.5 m equiv
Excretion Cl- (Rattus norvegicus [50]): 1.45 m equiv
Structure (SMILES): Clc1ccc(N/C(=N/C2CCCCC2)N2CCOCC2)cc1Cl
